# Data from patent publication US20230330093A1, “APPLICATION OF NITROGEN-CONTAINING SATURATED HETEROCYCLIC COMPOUND” (SHANGHAI PHARMACEUTICALS HOLDING CO., LTD., priority 2020, published 2023).
# Where “and” joins values, the source holds several entries; their conditions need not be identical. Equal entries are not always repeated.
# Columns and labels:
# [1] = tested on: rhesus monkeys with spontaneous chronic kidney disease; test: Effect on glomerular filtration rate eGFRcreat-cys, 8-week administration; type: in vivo, Macaca mulatta (Rhesus Macaque); conditions: for eGFRcreat-cys: 5 mg/kg qd (n = 6)
# Protocol: CKD-EPI rating […]-G3b, glomerular filtration rate eGFR: 30 59 ml/min/1.73 m^2; or moderate to severe increase in proteinuria (A2-A3): urine albumin/creatinine ratio (UACR)>15 mg/g-350 mg/g (4-6 hour urine collection), vs. age-matched control group 3±2 mg/g. In the trial, animals were brought in three stages. […] Glomerular filtration rate […]: creatinine (Cr-P), urea nitrogen (BUN) and cystatin (CysC) were detected, and the eGFR value was obtained by calculation. It was performed once before the administration and once every two weeks after the administration. […] ELISA kit was used for NT-proBNP test. [table] Selected […] in each group: 30 59 ml/min/1.73 m^2. The changes in the glomerular filtration rate of W8 and baseline were analyzed.
# [2] = tested on: rhesus monkeys with spontaneous chronic kidney disease; test: Effect on cystatin C (CysC), 8-week administration; type: in vivo, Macaca mulatta (Rhesus Macaque)
# Protocol: In the trial, animals were brought in three stages. […] Glomerular filtration rate […]: creatinine (Cr-P), urea nitrogen (BUN) and cystatin (CysC) were detected, and the eGFR value was obtained by calculation. It was performed once before the administration and once every two weeks after the administration. […] ELISA kit was used for NT-proBNP test. [table]
compound,measurement,setting,value
COC(=O)NCCCn1nc([C@@H](C)N(C(=O)[C@H]2CNCCO2)C2CC2)c2ccc(C)nc21.O=C(O)C[C@H](O)C(=O)O [malate of compound of Formula I],eGFRcreat-cys,"[1]; 2 weeks, group mean",54 ± 9 ml/min/1.73 m^2
same,eGFRcreat-cys,[1]; 6 weeks,53 ml/min/1.73 m^2 and 54 ml/min/1.73 m^2 and 49 ml/min/1.73 m^2 and 40 ml/min/1.73 m^2 and 64 ml/min/1.73 m^2
same,eGFRcreat-cys,"[1]; 6 weeks, group mean",53 ± 8 ml/min/1.73 m^2
same,eGFRcreat-cys,[1]; 8 weeks,57 ml/min/1.73 m^2 and 53 ml/min/1.73 m^2 and 55 ml/min/1.73 m^2 and 43 ml/min/1.73 m^2 and 61 ml/min/1.73 m^2 and 60 ml/min/1.73 m^2
same,eGFRcreat-cys,"[1]; 8 weeks, group mean",55 ± 7 ml/min/1.73 m^2
same,eGFRcreat-cys,"[1]; Baseline, single animals and Mean ± SD",55 ml/min/1.73 m^2 and 48 ml/min/1.73 m^2 and 51 ml/min/1.73 m^2 and 41 ml/min/1.73 m^2 and 53 ml/min/1.73 m^2 and 43 ml/min/1.73 m^2
same,eGFRcreat-cys,"[1]; Baseline, single animals and Mean ± SD, group mean",49 ± 5 ml/min/1.73 m^2
same,glomerular filtration rate eGFRcreat-cys improvement,[1]; 2-5 mg/kg qd for 8 weeks,can be significantly improved
same,CysC,"[2]; 1 mg/kg (n = 5), 2 weeks",1.66 mg/L and 1.64 mg/L and 1.83 mg/L and 1.55 mg/L
same,CysC,"[2]; 1 mg/kg (n = 5), 2 weeks, mean",1.70 ± 0.12 mg/L
same,CysC,"[2]; 1 mg/kg (n = 5), 4 weeks",1.49 mg/L and 1.43 mg/L and 1.57 mg/L and 1.76 mg/L and 1.50 mg/L
same,CysC,"[2]; 1 mg/kg (n = 5), 4 weeks, mean",1.55 ± 0.13 mg/L
same,CysC,"[2]; 1 mg/kg (n = 5), 6 weeks",1.48 mg/L and 1.61 mg/L and 1.62 mg/L and 1.68 mg/L and 1.50 mg/L
same,CysC,"[2]; 1 mg/kg (n = 5), 6 weeks, mean",1.58 ± 0.08 mg/L
same,CysC,"[2]; 1 mg/kg (n = 5), 8 weeks",1.51 mg/L and 1.59 mg/L and 1.62 mg/L and 1.77 mg/L
same,CysC,"[2]; 1 mg/kg (n = 5), 8 weeks, mean",1.60 ± 0.11 mg/L
same,CysC,"[2]; 1 mg/kg (n = 5), Baseline, single animals and Mean ± SD",1.67 mg/L and 1.80 mg/L and 1.72 mg/L and 1.84 mg/L and 1.75 mg/L
same,CysC,"[2]; 1 mg/kg (n = 5), Baseline, single animals and Mean ± SD, mean",1.76 ± 0.07 mg/L
same,CysC,"[2]; 2 mg/kg (n = 5), 2 weeks",1.44 mg/L and 1.97 mg/L and 1.71 mg/L and 1.73 mg/L and 1.51 mg/L
same,CysC,"[2]; 2 mg/kg (n = 5), 2 weeks, mean",1.67 ± 0.21 mg/L
same,CysC,"[2]; 2 mg/kg (n = 5), 4 weeks",1.31 mg/L and 1.77 mg/L and 1.56 mg/L and 1.43 mg/L and 1.47 mg/L
same,CysC,"[2]; 2 mg/kg (n = 5), 4 weeks, mean",1.51 ± 0.17 mg/L
same,CysC,"[2]; 2 mg/kg (n = 5), 6 weeks",1.39 mg/L and 1.76 mg/L and 1.65 mg/L and 1.54 mg/L and 1.42 mg/L
same,CysC,"[2]; 2 mg/kg (n = 5), 6 weeks, mean",1.55 ± 0.16 mg/L
same,CysC,"[2]; 2 mg/kg (n = 5), 8 weeks",1.36 mg/L and 1.68 mg/L and 1.58 mg/L and 1.55 mg/L and 1.47 mg/L
same,CysC,"[2]; 2 mg/kg (n = 5), 8 weeks, mean",1.53 ± 0.12 mg/L
same,CysC,"[2]; 2 mg/kg (n = 5), Baseline, single animals and Mean ± SD",1.57 mg/L and 1.87 mg/L and 1.72 mg/L and 1.69 mg/L and 1.56 mg/L
same,CysC,"[2]; 2 mg/kg (n = 5), Baseline, single animals and Mean ± SD, mean",1.68 ± 0.13 mg/L
same,CysC,"[2]; 5 mg/kg (n = 6), 2 weeks",1.63 mg/L and 1.45 mg/L and 2.63 mg/L and 1.46 mg/L and 1.64 mg/L
same,CysC,"[2]; 5 mg/kg (n = 6), 2 weeks, mean",1.74 ± 0.44 mg/L
same,CysC,"[2]; 5 mg/kg (n = 6), 4 weeks",1.68 mg/L and 1.73 mg/L and 1.64 mg/L and 2.41 mg/L and 1.36 mg/L and 1.44 mg/L
same,CysC,"[2]; 5 mg/kg (n = 6), 4 weeks, mean",1.71 ± 0.37 mg/L
same,CysC,"[2]; 5 mg/kg (n = 6), 6 weeks",1.59 mg/L and 1.47 mg/L and 1.80 mg/L and 2.45 mg/L and 1.40 mg/L and 1.46 mg/L
same,CysC,"[2]; 5 mg/kg (n = 6), 6 weeks, mean",1.70 ± 0.40 mg/L
same,CysC,"[2]; 5 mg/kg (n = 6), 8 weeks",1.46 mg/L and 1.69 mg/L and 1.66 mg/L and 2.29 mg/L and 1.50 mg/L and 1.39 mg/L
same,CysC,"[2]; 5 mg/kg (n = 6), 8 weeks, mean",1.67 ± 0.33 mg/L
same,CysC,"[2]; 5 mg/kg (n = 6), Baseline, single animals and Mean ± SD",1.49 mg/L and 1.63 mg/L and 1.61 mg/L and 2.52 mg/L and 1.47 mg/L and 1.55 mg/L
same,CysC,"[2]; 5 mg/kg (n = 6), Baseline, single animals and Mean ± SD, mean",1.71 ± 0.40 mg/L
